Test results as given in US20100022527A1, “BIPHENYL SUBSTITUTED SPIROTETRONIC ACIDS AND THEIR USE FOR THE TREATMENT OF RETROVIRAL DISEASES” (priority 2006, published 2010).

Molecular target: T1, HIV-1 protease wild type protein (Human immunodeficiency virus type 1 group M subtype B, UniProt P04585)
T1 construct: HIV-1 protease wild type protein; purchased AscoProt Biotech, Prague, Czech Republic
Assay: Biochemical protease assay
Procedure: For the determination of their in vitro activity on HIV proteases the test substances are dissolved in DMSO and serially diluted. In each case 0.5 μl of substance dilution, 20 μl of 0.2-1 nM HIV-1 protease wild type or mutant protein (e.g., multiresistant isolate “35513”: L10I, I15V, L19I, K20R, E35D, M36I, R41K, I54V, L63P, H69K, A71V, T74P, I84V, L89M, L90M, 193L, AscoProt Biotech, Prague, Czech Republic) in buffer 1 (50 mM sodium acetate pH 4.9, 0.02% BSA, 0.1 mM EDTA, 0.5 mM DTT) and 20 μl of 8 μM substrate (M1865 from Bachem, Bubendorf, Switzerland; Matayoshi et al., Science 1990, 247, 954-8) in buffer 1 are added successively to a 384 well microtiter plate (Greiner, Frickenhausen, Germany), incubated for 60-180 minutes at 32° C. and the fluorescence is measured (e.g., Tecan Safire, 340 nm extinction, 520 nm emission). IC50 values are determined by graphical plotting the substance concentration against the percentage inhibition.

Row | SMILES | IC50
1 | Cc1cc(-c2cccc([N+](=O)[O-])c2)c(Cl)cc1C1=C(O)C2(CCC3CCCC3C2)OC1=O (stereo not drawn) [Example 88] | ≤ 0.1 µM
2 | CCOC1CCCCC12OC(=O)C(c1cc(C)c(-c3ccc(Cl)cc3)cc1C)=C2O (stereo not drawn) [Example 14] | ≤ 0.1 µM
3 | Cc1cc(-c2cccc(S(C)(=O)=O)c2)c(Cl)cc1C1=C(O)C2(CCCN(CC(=O)NCc3ccncc3)C2)OC1=O (stereo not drawn) [Example 161, 2-{3-[2-Chloro-5-methyl-3′-(methylsulfonyl)biphenyl-4-yl]-4-hydroxy-2-oxo-1-oxa-7-azaspiro[4.5]dec-3-en-7-yl}-N-(pyridin-4-ylmethyl)acetamide] | ≤ 0.1 µM
4 | Cc1cc(-c2cccc(S(C)(=O)=O)c2)c(Cl)cc1C1=C(O)C2(CCC3CCCC3C2)OC1=O (stereo not drawn) [Example 84] | ≤ 0.1 µM
5 | Cc1cc(-c2ccc(C(=O)NC3CC3)cc2)c(Cl)cc1C1=C(O)C2(CCCCC2)OC1=O [Example 49] | ≤ 0.1 µM
6 | COC1CCC2(CC1)OC(=O)C(c1cc(Cl)c(-c3ccc(F)cc3)cc1C)=C2O (stereo not drawn) [Example 54] | ≤ 0.1 µM
7 | Cc1cc(-c2cccc(C(=O)NC3CC3)c2)c(Cl)cc1C1=C(O)C2(CCCCC2)OC1=O [Example 50] | ≤ 0.1 µM
8 | Cc1cc(-c2ccc(C(=O)O)cc2)c(Cl)cc1C1=C(O)C2(CCCCC2)OC1=O [Example 30] | ≤ 0.1 µM
9 | COC1CCC2(CC1)OC(=O)C(c1cc(Cl)c(-c3ccccc3)cc1C)=C2O (stereo not drawn) [Example 53] | ≤ 0.1 µM
10 | CCOC1CCCCC12OC(=O)C(c1cc(Cl)c(-c3cccc(S(C)(=O)=O)c3)cc1C)=C2O (single isomer, unassigned) [Example 75] | ≤ 0.1 µM
11 | C/C(=C\C(=O)N1CCCC2(C1)OC(=O)C(c1cc(Cl)c(-c3cccc(S(C)(=O)=O)c3)cc1C)=C2O)CO (stereo not drawn) [Example 122] | ≤ 0.1 µM
12 | Cc1cc(-c2cccc(NS(C)(=O)=O)c2)c(Cl)cc1C1=C(O)C2(CCCN(CC(=O)NCc3ccccc3)C2)OC1=O (stereo not drawn) [Example 97] | ≤ 0.1 µM
13 | CCS(=O)(=O)c1ccc(-c2cc(C)c(C3=C(O)C4(CCCCC4)OC3=O)cc2Cl)cc1 [Example 42] | ≤ 0.1 µM
14 | Cc1cc(C2=C(O)C3(CCCCC3)OC2=O)c(Cl)cc1-c1ccc(Cl)cc1 [Example 70] | ≤ 0.1 µM
15 | Cc1cc(-c2cccc(NS(C)(=O)=O)c2)c(Cl)cc1C1=C(O)C2(CCC3CCCC3C2)OC1=O (stereo not drawn) [Example 189] | ≤ 0.1 µM
16 | Cc1cc(-c2ccc(Cl)cc2)c(C)cc1C1=C(O)C2(CCCCC2OC(C)C)OC1=O (stereo not drawn) [Example 13] | ≤ 0.1 µM
17 | Cc1cc(-c2cccc(S(C)(=O)=O)c2)c(Cl)cc1C1=C(O)C2(CCCN(CC(=O)NCc3cccnc3)C2)OC1=O (stereo not drawn) [Example 162] | ≤ 0.1 µM
18 | Cc1cc(-c2cc(NS(C)(=O)=O)ccc2F)c(Cl)cc1C1=C(O)C2(CCCCC2)OC1=O [Example 92] | ≤ 0.1 µM
19 | Cc1cc(C2=C(O)C3(CCCCC3)OC2=O)c(Cl)cc1-c1cccc(S(C)(=O)=O)c1 [Example 71] | ≤ 0.1 µM
20 | Cc1cc(-c2ccc([N+](=O)[O-])cc2)c(Cl)cc1C1=C(O)C2(CCCCC2)OC1=O [Example 47, 3-(2-chloro-5-methyl-4′-nitrobiphenyl-4-yl)-4-hydroxy-1-oxaspiro[4.5]dec-3-en-2-one] | ≤ 0.1 µM
21 | Cc1cc(-c2cccc(S(C)(=O)=O)c2)c(Cl)cc1C1=C(O)C2(CCCN(C(=O)CCOc3ccccc3)C2)OC1=O (stereo not drawn) [Example 100] | ≤ 0.1 µM

Row | SMILES | IC50
22 | Cc1ccccc1CNC(=O)CN1CCCC2(C1)OC(=O)C(c1cc(Cl)c(-c3cccc(S(C)(=O)=O)c3)cc1C)=C2O (stereo not drawn) [Example 132] | ≤ 0.1 µM
23 | Cc1cc(-c2cccc(S(C)(=O)=O)c2)c(Cl)cc1C1=C(O)C2(CCCN(C(=O)/C=C\c3cnn(C)c3)C2)OC1=O (stereo not drawn) [Example 121] | ≤ 0.1 µM
24 | Cc1cc(-c2cccc(S(C)(=O)=O)c2)c(Cl)cc1C1=C(O)C2(CCCN(C(=O)/C=C\c3c[nH]cn3)C2)OC1=O (stereo not drawn) [Example 123] | ≤ 0.1 µM
25 | CC(=O)c1cccc(-c2cc(C)c(C3=C(O)C4(CCCCC4)OC3=O)cc2Cl)c1 [Example 27] | ≤ 0.1 µM
26 | Cc1cc(-c2cccc(C(=O)NCCC#N)c2)c(Cl)cc1C1=C(O)C2(CCCCC2)OC1=O [Example 51] | ≤ 0.1 µM
27 | Cc1cc(-c2cccc(S(C)(=O)=O)c2)c(Cl)cc1C1=C(O)C2(CCN(C(=O)N3CCCC3)CC2)OC1=O [Example 155] | ≤ 0.1 µM
28 | Cc1cc(-c2cccc(NC(=O)CN(C)C)c2)c(Cl)cc1C1=C(O)[C@]2(CC[C@@H]3CCC[C@@H]3C2)OC1=O [Example 182] | ≤ 0.1 µM
29 | COC(=O)CCCC(=O)N1CCC2(CC1)OC(=O)C(c1cc(Cl)c(-c3cccc(S(C)(=O)=O)c3)cc1C)=C2O [Example 138, methyl 5-{3-[2-chloro-5-methyl-3′-(methylsulfonyl)biphenyl-4-yl]-4-hydroxy-2-oxo-1-oxa-8-azaspiro[4.5]dec-3-en-8-yl}-5-oxopentanoate] | ≤ 0.1 µM
30 | COc1ccc(-c2ccc(C3=C(O)C4(CCCCC4)OC3=O)c(C)c2)cc1 [Example 62] | ≤ 0.1 µM
31 | Cc1cc(-c2cccc(S(C)(=O)=O)c2)c(Cl)cc1C1=C(O)C2(CCCN(C(=O)CCCS(N)(=O)=O)C2)OC1=O (stereo not drawn) [Example 113] | ≤ 0.1 µM
32 | Cc1cc(-c2cccc(NS(=O)(=O)Cc3ccccc3)c2)c(Cl)cc1C1=C(O)C2(CCCCC2)OC1=O [Example 191] | ≤ 0.1 µM
33 | Cc1cc(-c2cccc(NS(C)(=O)=O)c2)c(Cl)cc1C1=C(O)C2(CCCCCC2)OC1=O [Example 199] | ≤ 0.1 µM
34 | Cc1cc(-c2ccccc2)c(Cl)cc1C1=C(O)C2(CCCCC2)OC1=O [Example 17, 3-(2-Chloro-5-methylbiphenyl-4-yl)-4-hydroxy-1-oxaspiro[4.5]dec-3-en-2-one] | ≤ 0.1 µM
35 | CCN(CC)C(=O)N1CCC2(CC1)OC(=O)C(c1cc(Cl)c(-c3cccc(S(C)(=O)=O)c3)cc1C)=C2O [Example 157] | ≤ 0.1 µM
36 | Cc1cc(-c2cccc(C#N)c2)c(Cl)cc1C1=C(O)C2(CCCCC2)OC1=O [Example 37] | ≤ 0.1 µM
37 | Cc1cc(-c2ccc3c(c2)OCO3)c(Cl)cc1C1=C(O)C2(CCCCC2)OC1=O [Example 24] | ≤ 0.1 µM
38 | COC1CCC2(CC1)OC(=O)C(c1cc(C)c(-c3cccc(C(F)(F)F)c3)cc1C)=C2O (stereo not drawn) [Example 57] | ≤ 0.1 µM
39 | Cc1cc(-c2cccc(S(C)(=O)=O)c2)c(Cl)cc1C1=C(O)C2(CCCN(CC(=O)NCc3ccoc3)C2)OC1=O (stereo not drawn) [Example 168] | ≤ 0.1 µM
40 | Cc1cc(-c2ccc(Cl)cc2)ccc1C1=C(O)C2(CCCCC2)OC1=O [Example 61] | ≤ 0.1 µM
41 | Cc1cc(-c2cccc(N(C)S(C)(=O)=O)c2)c(Cl)cc1C1=C(O)C2(CCCCC2)OC1=O [Example 185, N-[2′-Chloro-4′-(4-hydroxy-2-oxo-1-oxaspiro[4.5]dec-3-en-3-yl)-5′-methylbiphenyl-3-yl]-N-methylmethanesulfonamide] | ≤ 0.1 µM
42 | COc1ccc(-c2cc(C)c(C3=C(O)C4(CCCCC4)OC3=O)cc2Cl)cc1 [Example 23] | ≤ 0.1 µM
